Assay results reported in the NIST ThermoML archive (doi:10.1016/j.jct.2006.05.008).

Assay: molar heat capacity at constant pressure
Conditions: 101.33 kPa

CCn1cc[n+](C)c1.[Br-] [1-ethyl-3-methylimidazolium bromide]
molar heat capacity at constant pressure [J/K/mol], Small (less than 1 g) adiabatic calorimetry
Conditions | Crystal | Liquid
5 K | 0.322 | –
10 K | 3.336 | –
15 K | 9.171 | –
20 K | 16.81 | –
25 K | 25 | –
30 K | 33.08 | –
35 K | 40.68 | –
40 K | 47.53 | –
45 K | 53.77 | –
50 K | 59.49 | –
60 K | 69.57 | –
70 K | 78.03 | –
80 K | 85.47 | –
80.24 K | 85.68 | –
83.06 K | 87.67 | –
85.79 K | 89.36 | –
88.55 K | 91.21 | –
90 K | 92.12 | –
91.34 K | 93.01 | –
94.15 K | 94.8 | –
96.98 K | 96.52 | –
99.83 K | 98.18 | –
100 K | 98.11 | –
102.69 K | 99.88 | –
105.57 K | 101.51 | –
108.46 K | 103.1 | –
110 K | 103.8 | –
111.37 K | 104.69 | –
114.29 K | 106.29 | –
117.22 K | 107.83 | –
120 K | 109.1 | –
120.16 K | 109.35 | –
123.11 K | 110.89 | –
126.08 K | 112.42 | –
129.06 K | 113.89 | –
130 K | 114.2 | –
132.03 K | 115.39 | –
135.01 K | 116.87 | –
138 K | 118.34 | –
140 K | 119.1 | –
140.99 K | 119.85 | –
143.99 K | 121.33 | –
146.99 K | 122.81 | –
149.99 K | 124.27 | –
150 K | 124.1 | –
152.99 K | 125.74 | –
156 K | 127.17 | –
159 K | 128.63 | –
160 K | 128.9 | –
162.08 K | 130.18 | –
165.15 K | 131.64 | –
168.15 K | 133.08 | –
170 K | 133.7 | –
171.16 K | 134.55 | –
174.16 K | 136.01 | –
177.16 K | 137.5 | –
180 K | 138.6 | –
180.15 K | 138.89 | –
183.15 K | 140.38 | –
186.14 K | 141.85 | –
189.13 K | 143.32 | –
190 K | 143.6 | –
192.12 K | 144.81 | –
195.1 K | 146.31 | –
198.07 K | 147.84 | –
200 K | 148.7 | –
201.05 K | 149.45 | –
204.01 K | 151.13 | –
206.98 K | 152.7 | –
209.94 K | 154.27 | –
210 K | 153.9 | –
212.9 K | 155.83 | –
215.85 K | 157.4 | –
218.78 K | 158.98 | –
220 K | 159.2 | –
221.71 K | 160.52 | –
224.63 K | 162.13 | –
227.55 K | 163.72 | –
230 K | 164.7 | –
230.45 K | 165.37 | –
233.35 K | 166.97 | –
236.24 K | 168.5 | –
239.13 K | 170.14 | –
240 K | 170.4 | –
242 K | 171.88 | –
244.87 K | 173.49 | –
247.74 K | 175.15 | –
250 K | 176.2 | –
250.59 K | 176.83 | –
253.44 K | 178.51 | –
256.25 K | 180.2 | –
259.07 K | 181.98 | –
260 K | 182.2 | –
261.87 K | 183.73 | –
264.68 K | 185.47 | –
267.47 K | 187.2 | –
270 K | 188.3 | –
270.26 K | 188.95 | –
273.03 K | 190.7 | –
275.79 K | 192.52 | –
278.53 K | 194.49 | –
280 K | 195.1 | –
281.26 K | 196.34 | –
283.96 K | 198.2 | –
286.66 K | 199.93 | –
289.36 K | 201.96 | –
290 K | 202 | –
292.03 K | 203.78 | –
294.7 K | 205.78 | –
297.36 K | 207.81 | –
298.15 K | 207.5 | –
299.92 K | 209.77 | –
300 K | 208.8 | –
310 K | 215.7 | –
320 K | 222.5 | –
330 K | 229.4 | –
340 K | 236.3 | –
347.66 K | – | 265.34
349.92 K | 243.1 | 264.8
350 K | – | 264.8
350.15 K | – | 266.1
352.61 K | – | 266.89
353.91 K | – | 267.52
355.07 K | – | 267.71
357.53 K | – | 268.53
359.99 K | – | 269.33
360 K | – | 268.6
361.35 K | – | 270.21
362.45 K | – | 270.78
364.95 K | – | 271.95
366.81 K | – | 270.88
367.5 K | – | 272.58
370 K | – | 272.4

Crystal
Conditions | molar heat capacity at constant pressure [J/K/mol]
5.194 K | 0.3611
5.579 K | 0.4605
5.885 K | 0.5503
6.228 K | 0.6668
6.606 K | 0.8178
6.985 K | 0.9897
7.365 K | 1.183
7.747 K | 1.406
8.13 K | 1.655
8.515 K | 1.937
8.9 K | 2.249
9.286 K | 2.597
9.673 K | 2.979
10.06 K | 3.401
10.55 K | 3.999
11.14 K | 4.807
11.73 K | 5.74
12.32 K | 6.81
12.91 K | 7.996
13.54 K | 8.107
14.21 K | 8.109
14.85 K | 8.978
15.58 K | 10.01
16.41 K | 11.22
17.25 K | 12.49
18.08 K | 13.77
18.92 K | 15.08
19.75 K | 16.41
20.88 K | 18.28
22.31 K | 20.62
23.74 K | 22.98
25.17 K | 25.34
26.6 K | 27.65
28.05 K | 30.01
29.5 K | 32.33
30.94 K | 34.65
32.4 K | 36.88
33.85 K | 39.07
35.31 K | 41.18
36.76 K | 43.24
38.22 K | 45.23
39.68 K | 47.2
41.38 K | 49.4
43.34 K | 51.87
45.31 K | 54.3
47.28 K | 56.63
49.24 K | 58.85
51.21 K | 60.97
53.18 K | 63
55.14 K | 65
57.11 K | 66.93
59.08 K | 68.82
61.05 K | 70.7
63.03 K | 72.54
65 K | 74.25
66.98 K | 75.86
68.96 K | 77.42
70.95 K | 78.97
72.93 K | 80.48
74.92 K | 82.06
76.91 K | 83.6
78.9 K | 85.15
80.9 K | 86.6
82.91 K | 87.82
